Laboratory results published in paper PMC9995905, “Characteristics of antimicrobial peptide OaBac5mini and its bactericidal mechanism against Escherichia coli” (Frontiers in Veterinary Science, 2023).
In brackets after ≈: the same amount, converted by molar mass.

Experiments:
E. coli ATCC 25922 ΔsbmA = conditions: two-fold broth microdilution, CLSI; three independent occasions; sbmA deletion mutant
Method: The method described by Datsenko and Wanner was used for chromosomal gene deletion ([20]). […] The PCR fragment (1,567 bp) was purified, digested with DpnI, repurified and transferred into E. coli ATCC 25922 by electroporation, in which the Red recombinase expression plasmid pKD46 was previously transformed and induced by L-arabinose. Transformants were selected on Luria-Bertani (LB) agar containing 50 μg/ml of kanamycin at 37°C. The inserted sequence was amplified from the kanamycin-resistant strains by using the primers SBMF: 5′-[…]-3′ and SBMR: 5′-[…]-3′ which is located outside of inactivated gene. The length of the PCR product of sbmA using the primers set SBMF and SBMR in E. coli ATCC 25922 is 1,404 bp. When sbmA is successfully inactivated, the PCR product (2,198 bp) was amplified and sequenced for the verification of the gene deletion.
(§1) MICs of OaBac5mini, amoxicillin, kanamycin, florfenicol and tetracycline were determined using the two-fold broth microdilution method according to the Clinical and Laboratory Standards Institute (CLSI) guidance ([21]). MIC values of the tested antibacterial agents were determined on three independent occasions. Escherichia coli ATCC 25922 was used as the quality control in all the susceptibility tests.

E. coli 2 = test: microbe, parasite or virus in culture; conditions: for MIC: Escherichia coli, 2, read-out: MIC against E. coli 2
Excerpt: (§2) The strains of E. coli ATCC 25922 and S. aureus ATCC 25923 were purchased from the American Type Culture Collection (ATCC, Manassas, VA, United States). The strains of E. coli W13, E. coli IF4, E. coli 2, and E. coli 17 were individually isolated from the livers of diseased chickens infected by E. coli. The strains of S. aureus B5, S. aureus B9, S. aureus B54, and S. aureus B63 were individually isolated from the milk of cows with mastitis. These clinical isolates were all identified by the VITEK-32 system (bioMérieux, France) and PCR amplification sequencing.
as §1

E. coli W13 = test: microbe, parasite or virus in culture; conditions: for MIC: Escherichia coli, W13, read-out: MIC against E. coli W13
Excerpt: as §2, §1

E. coli IF4 = test: microbe, parasite or virus in culture; conditions: for MIC: Escherichia coli, IF4, read-out: MIC against E. coli IF4
Excerpt: as §2, §1

E. coli 17 = test: microbe, parasite or virus in culture; conditions: for MIC: Escherichia coli, 17, read-out: MIC against E. coli 17
Excerpt: as §2, §1

S. aureus B63 = test: microbe, parasite or virus in culture; conditions: for MIC: Staphylococcus aureus, B63, read-out: MIC against S. aureus B63
Excerpt: as §2, §1

S. aureus B5 = test: microbe, parasite or virus in culture; conditions: for MIC: Staphylococcus aureus, B5, read-out: MIC against S. aureus B5
Excerpt: as §2, §1

S. aureus B54 = test: microbe, parasite or virus in culture; conditions: for MIC: Staphylococcus aureus, B54, read-out: MIC against S. aureus B54
Excerpt: as §2, §1

S. aureus B9 = test: microbe, parasite or virus in culture; conditions: for MIC: Staphylococcus aureus, B9, read-out: MIC against S. aureus B9
Excerpt: as §2, §1

S. aureus ATCC 25923 = test: microbe, parasite or virus in culture; conditions: for MIC: Staphylococcus aureus, ATCC25923, read-out: MIC against S. aureus ATCC 25923
Method: as §1

E. coli ATCC 25922 = test: microbe, parasite or virus in culture; conditions: for MIC: Escherichia coli, ATCC25922, read-out: MIC against E. coli ATCC 25922
Method: as §1

[1] = two-fold broth microdilution, CLSI, three independent occasions, isolate from diseased chicken liver
[2] = two-fold broth microdilution, CLSI, three independent occasions, isolate from milk of cows with mastitis
[3] = two-fold broth microdilution, CLSI, three independent occasions

CC1(C)S[C@@H]2[C@H](NC(=O)[C@H](N)c3ccc(O)cc3)C(=O)N2[C@H]1C(=O)O [AMO, amoxicillin]
MIC against E. coli ATCC 25922 ΔsbmA (E. coli ATCC 25922 ΔsbmA): 8 µg/mL (≈ 21.9 µM) | MIC (E. coli 2): > 640 µg/mL | MIC (E. coli W13): > 640 µg/mL | MIC (E. coli IF4): > 640 µg/mL | MIC (E. coli 17): > 640 µg/mL | MIC (S. aureus B63): 2.08 µg/mL (≈ 5.69 µM) | MIC (S. aureus B5): 427 µg/mL (≈ 1170 µM) | MIC (S. aureus B54): 3.33 µg/mL (≈ 9.11 µM) | MIC (S. aureus B9): 3.33 µg/mL (≈ 9.11 µM) | MIC (S. aureus ATCC 25923): 0.67 µg/mL (≈ 1.83 µM) | MIC (E. coli ATCC 25922): 8 µg/mL (≈ 21.9 µM)

CS(=O)(=O)c1ccc([C@@H](O)[C@@H](CF)NC(=O)C(Cl)Cl)cc1 [FLO, florfenicol]
MIC against E. coli ATCC 25922 ΔsbmA (E. coli ATCC 25922 ΔsbmA): 5.3 µg/mL (≈ 14.8 µM) | MIC (E. coli 2): 267 µg/mL (≈ 744 µM) | MIC (E. coli W13): 320 µg/mL (≈ 893 µM) | MIC (E. coli IF4): 80 µg/mL (≈ 223 µM) | MIC (E. coli 17): 80 µg/mL (≈ 223 µM) | MIC (S. aureus B63): 1.04 µg/mL (≈ 2.9 µM) | MIC (S. aureus B5): 4.17 µg/mL (≈ 11.6 µM) | MIC (S. aureus B54): 2.5 µg/mL (≈ 6.98 µM) | MIC (S. aureus B9): 1.67 µg/mL (≈ 4.66 µM) | MIC (S. aureus ATCC 25923): 16 µg/mL (≈ 44.7 µM) | MIC (E. coli ATCC 25922): 4 µg/mL (≈ 11.2 µM)

CN(C)[C@@H]1C(O)=C(C(N)=O)C(=O)[C@@]2(O)C(O)=C3C(=O)c4c(O)cccc4[C@@](C)(O)[C@H]3C[C@@H]12 [TET, tetracycline]
MIC against E. coli ATCC 25922 ΔsbmA (E. coli ATCC 25922 ΔsbmA): 1.67 µg/mL (≈ 3.76 µM) | MIC (E. coli 2): 1 µg/mL (≈ 2.25 µM) | MIC (E. coli W13): 160 µg/mL (≈ 360 µM) | MIC (E. coli IF4): 133 µg/mL (≈ 300 µM) | MIC (E. coli 17): 160 µg/mL (≈ 360 µM) | MIC (S. aureus B63): 0.42 µg/mL (≈ 0.945 µM) | MIC (S. aureus B5): 0.08 µg/mL (≈ 0.18 µM) | MIC (S. aureus B54): 66.7 µg/mL (≈ 150 µM) | MIC (S. aureus B9): 80 µg/mL (≈ 180 µM) | MIC (S. aureus ATCC 25923): 1 µg/mL (≈ 2.25 µM) | MIC (E. coli ATCC 25922): 2 µg/mL (≈ 4.5 µM)

NC[C@H]1O[C@H](O[C@H]2[C@H](O)[C@@H](O[C@H]3O[C@H](CO)[C@@H](O)[C@H](N)[C@H]3O)[C@H](N)C[C@@H]2N)[C@H](O)[C@@H](O)[C@@H]1O [KAN, kanamycin]
MIC against E. coli 2 (E. coli 2; [1]): >640 µg/mL | MIC against E. coli W13 (E. coli W13; [1]): 320 µg/mL (≈ 660 µM) | MIC against E. coli IF4 (E. coli IF4; [1]): >640 µg/mL | MIC against E. coli 17 (E. coli 17; [1]): 320 µg/mL (≈ 660 µM) | MIC against S. aureus B63 (S. aureus B63; [2]): 1.25 µg/mL (≈ 2.58 µM) | MIC against S. aureus B5 (S. aureus B5; [2]): 40 µg/mL (≈ 82.6 µM) | MIC against S. aureus B54 (S. aureus B54; [2]): 5.83 µg/mL (≈ 12 µM) | MIC against S. aureus B9 (S. aureus B9; [2]): 186.67 µg/mL (≈ 385 µM) | MIC against S. aureus ATCC 25923 (S. aureus ATCC 25923; [3]): 4 µg/mL (≈ 8.26 µM) | MIC against E. coli ATCC 25922 (E. coli ATCC 25922; [3]): 4 µg/mL (≈ 8.26 µM)
